# Measurements taken from patent US3951955A, “Penicillins substituted with heterocyclic groups” (Sumitomo Chemical Company, Limited, priority 1970, dated 1976).
# Where a name gives a salt, the structure may show the parent alone.
# Experiments:
# Assay in all cases: minimal inhibitory concentration, agar dilution method (in vitro)
# Assay type in all cases: cell-based
# Escherichia coli NIHJ = system: Escherichia coli NIHJ
# Excerpt: (§1) When determined according to the agar dilution method, the penicillins [I] afford the minimal inhibitory concentrations as shown in the following Table 1: […]
# [1] = system: Staphylococcus aureus 209P
# Excerpt: as §1
# [2] = system: Klebsiella pneumoniae 602
# Excerpt: as §1
# Proteus miravilis 2425 = system: Proteus miravilis 2425
# Excerpt: as §1
# [3] = system: Pseudomonas aeruginosa 104
# Excerpt: as §1
Structure (SMILES),MIC (Escherichia coli NIHJ) [µg/mL],MIC [1] [µg/mL],MIC [2] [µg/mL],MIC (Proteus miravilis 2425) [µg/mL],MIC [3] [µg/mL]
CCCCN(CCCC)c1ccc2ncc(C(=O)NC(C(=O)NC3C(=O)N4C3SC(C)(C)C4C(=O)O)c3ccccc3)c(O)c2n1 (stereo not shown) [Example 42],3.13,1.56,3.13,3.13,3.13
Cc1ncc2ncc(C(=O)NC(C(=O)NC3C(=O)N4C3SC(C)(C)C4C(=O)O)c3ccccc3)c(O)c2n1 (stereo not shown) [Example 56],3.13,0.78,3.13,6.25,3.13
CC1(C)SC2C(NC(=O)C(NC(=O)c3cnc4ccncc4c3O)c3ccccc3)C(=O)N2C1C(=O)O (stereo not shown) [Example 43],12.5,0.78,6.25,12.5,6.25
CN(C)c1nccc2ncc(C(=O)NC(C(=O)NC3C(=O)N4C3SC(C)(C)C4C(=O)O)c3ccccc3)c(O)c12 (stereo not shown) [Example 45],6.25,0.78,3.13,6.25,12.5
"Cc1nc2cc3c(cc2c(O)c1C(=O)N[C@@H](C(=O)N[C@@H]1C(=O)N2[C@@H]1SC(C)(C)[C@@H]2C(=O)O)c1ccccc1)OCO3 [Example 7, D-(-)-α-(2-methyl-6,7-methylenedioxy-4-hydroxyquinoline-3-carbonamido)-benzylpenicillin potassium salt]",12.5,0.2,,6.25,12.5
CC1(C)SC2C(NC(=O)C(NC(=O)c3cnc4cnc(O)nc4c3O)c3ccccc3)C(=O)N2C1C(=O)O (stereo not shown) [Example 53],3.13,1.56,6.25,6.25,6.25
CCNc1ccc2ncc(C(=O)NC(C(=O)NC3C(=O)N4C3SC(C)(C)C4C(=O)O)c3ccccc3)c(O)c2n1 (stereo not shown) [Example 41],3.13,0.78,6.25,6.25,6.25
CC(=O)Nc1ccc2ncc(C(=O)NC(C(=O)N[C@@H]3C(=O)N4[C@@H]3SC(C)(C)[C@@H]4C(=O)O)c3ccccc3)c(O)c2c1 (stereo partly shown) [Example 23],12.5,0.78,3.13,3.13,12.5
CNc1ccc2ncc(C(=O)NC(C(=O)NC3C(=O)N4C3SC(C)(C)C4C(=O)O)c3ccccc3)c(O)c2n1 (stereo not shown) [Example 35],1.56,0.78,3.13,6.25,3.13
CC(=O)CC(=O)Nc1ccc2ncc(C(=O)NC(C(=O)NC3C(=O)N4C3SC(C)(C)C4C(=O)O)c3ccccc3)c(O)c2n1 (stereo not shown) [Example 31],3.13,0.78,6.25,6.25,6.25
COc1ccc2ncc(C(=O)NC(C(=O)N[C@@H]3C(=O)N4[C@@H]3SC(C)(C)[C@@H]4C(=O)O)c3ccccc3)c(O)c2n1 (stereo partly shown) [Example 28],1.56,0.78,3.13,1.56,3.13
CC1(C)SC2C(NC(=O)C(NC(=O)c3cnc4ccc(N)nc4c3O)c3ccccc3)C(=O)N2C1C(=O)O (stereo not shown) [Example 40],1.56,0.78,1.56,1.56,3.13
CCSc1c(C(=O)NC(C(=O)N[C@@H]2C(=O)N3[C@@H]2SC(C)(C)[C@@H]3C(=O)O)c2ccccc2)cnc2cc3c(cc12)OCO3 (stereo partly shown) [Example 8],12.5,0.2,,12.5,25
"CCOC(=O)Oc1c(C(=O)N[C@@H](C(=O)N[C@@H]2C(=O)N3[C@@H]2SC(C)(C)[C@@H]3C(=O)O)c2ccccc2)cnc2ccccc12 [Example 1, D-(-)-α-(4-ethoxycarbonyloxyquinoline-3-carbonamido)-benzylpenicillin]",6.25,0.2,,1.56,3.13
COc1c(C(=O)NC(C(=O)N[C@@H]2C(=O)N3[C@@H]2SC(C)(C)[C@@H]3C(=O)O)c2ccccc2)cnc2cc3c(cc12)OCO3 (stereo partly shown) [Example 10],12.5,0.2,,25,25
CC1(C)S[C@@H]2[C@H](NC(=O)C(NC(=O)c3cnc4cc5c(cc4c3S)OCO5)c3ccccc3)C(=O)N2[C@H]1C(=O)O (stereo partly shown) [Example 9],6.25,0.2,,3.13,3.13
CC1(C)S[C@@H]2[C@H](NC(=O)C(NC(=O)c3cnc4cc(C(F)(F)F)ccc4c3O)c3cccs3)C(=O)N2[C@H]1C(=O)O (stereo partly shown) [Example 25],12.5,0.39,,3.16,6.25

# Further compounds by falling MIC (Escherichia coli NIHJ), results first:
MIC (Escherichia coli NIHJ) [µg/mL],MIC [1] [µg/mL],MIC [2] [µg/mL],MIC (Proteus miravilis 2425) [µg/mL],MIC [3] [µg/mL],Structure (SMILES)
12.5,0.78,,6.25,6.25,"Cc1ccc2c(O)c(C(=O)N[C@@H](C(=O)N[C@@H]3C(=O)N4[C@@H]3SC(C)(C)[C@@H]4C(=O)O)c3ccccc3)cnc2n1 [Example 4, D-(-)-α-(7-methyl-4-hydroxy-1,8-naphthyridine-3-carbonamido)-benzylpenicillin potassium salt]"
12.5,0.39,0.78,6.25,12.5,CC1(C)S[C@@H]2[C@H](NC(=O)C(NC(=O)c3cnc4cc([N+](=O)[O-])ccc4c3O)c3ccccc3)C(=O)N2[C@H]1C(=O)O (stereo partly shown) [Example 21]
12.5,0.39,1.56,12.5,12.5,CCOC(=O)Oc1c(C(=O)NC(C(=O)N[C@@H]2C(=O)N3[C@@H]2SC(C)(C)[C@@H]3C(=O)O)c2ccccc2)cnc2ccc(NC(=O)OCc3ccccc3)cc12 (stereo partly shown) [Example 24]
12.5,0.2,,25,50,CCOc1c(C(=O)NC(C(=O)N[C@@H]2C(=O)N3[C@@H]2SC(C)(C)[C@@H]3C(=O)O)c2ccccc2)cnc2ccccc12 (stereo partly shown) [Example 13]
12.5,0.78,,6.25,12.5,"CCOC(=O)Oc1c(C(=O)N[C@@H](C(=O)N[C@@H]2C(=O)N3[C@@H]2SC(C)(C)[C@@H]3C(=O)O)c2ccccc2)cnc2nc(C)ccc12 [Example 5, D-(-)-α-(7-methyl-4-ethoxycarbonyloxy-1,8-naphthyridine-3-carbonamido)-benzylpenicillin]"
6.25,0.1,,1.56,3.13,"CC(C)(C)C(=O)Oc1c(C(=O)N[C@@H](C(=O)N[C@@H]2C(=O)N3[C@@H]2SC(C)(C)[C@@H]3C(=O)O)c2ccccc2)cnc2ccccc12 [Example 6, D-(-)-α-(4-pivaloyloxyquinoline-3-carbonamido)-benzylpenicillin]"
6.25,0.1,,3.13,3.13,CSc1ccc2ncc(C(=O)NC(C(=O)N[C@@H]3C(=O)N4[C@@H]3SC(C)(C)[C@@H]4C(=O)O)c3ccccc3)c(O)c2n1 (stereo partly shown) [Example 11]
6.25,0.1,,3.13,3.13,CN(C)c1ccc2ncc(C(=O)NC(C(=O)N[C@@H]3C(=O)N4[C@@H]3SC(C)(C)[C@@H]4C(=O)O)c3ccccc3)c(O)c2n1 (stereo partly shown) [Example 12]
3.13,0.78,1.56,3.13,3.13,Cc1nc(C)c2ncc(C(=O)NC(C(=O)NC3C(=O)N4C3SC(C)(C)C4C(=O)O)c3ccccc3)c(O)c2n1 (stereo not shown) [Example 55]
3.13,0.78,3.13,6.25,3.13,CC1(C)SC2C(NC(=O)C(NC(=O)c3cnc4ncncc4c3O)c3ccccc3)C(=O)N2C1C(=O)O (stereo not shown) [Example 47]
3.13,1.56,1.56,3.13,3.13,CN(C)c1ncc2c(O)c(C(=O)NC(C(=O)NC3C(=O)N4C3SC(C)(C)C4C(=O)O)c3ccccc3)cnc2n1 (stereo not shown) [Example 46]
1.56,0.78,3.13,1.56,3.13,Cc1ccc2ncc(C(=O)NC(C(=O)NC3C(=O)N4C3SC(C)(C)C4C(=O)O)c3ccccc3)c(O)c2n1 (stereo not shown) [Example 32]
